{"source": "patent US6479056B1", "about": "“Live vaccine constituting minor risk for humans” (priority 1994, dated 2002)", "data": [{"tested_on": "wild strains", "experiment": "MHK of antibiotics for wild strains", "type": "cell-based, Salmonella", "values": [{"smiles": "O=C(N[C@H](CO)[C@H](O)c1ccc([N+](=O)[O-])cc1)C(Cl)Cl", "note": "[chloramphenicol]", "MHK": "(Berlin-Chemie) 2.0 ug/ml"}, {"smiles": "[H]/N=C(/N)N[C@H]1[C@H](O)[C@@H](O)[C@H](O[C@@H]2O[C@@H](C)[C@](O)(C=O)[C@H]2O[C@@H]2O[C@@H](CO)[C@H](O)[C@@H](O)[C@@H]2NC)[C@@H](N/C(N)=N\\[H])[C@@H]1O", "note": "[streptomycin]", "MHK": "(Jenapharm) wild strains MHK 6.2 ug/ml"}, {"smiles": "O=C(O)c1cn(C2CC2)c2cc(N3CCNCC3)c(F)cc2c1=O", "note": "[ciprofloxacin]", "MHK": "(Bayer) wild strains MHK 0.05 ug/ml"}, {"smiles": "C[C@H]1c2cccc(O)c2C(=O)C2=C(O)[C@]3(O)C(=O)C(C(N)=O)=C(O)[C@@H](N(C)C)[C@@H]3[C@@H](O)[C@@H]21", "note": "[doxycycline]", "MHK": "(Jenapharm) wild strains MHK 4.0 ug/ml"}, {"smiles": "CCn1cc(C(=O)O)c(=O)c2ccc(C)nc21", "note": "[nalidixic acid]", "MHK": "(CHINOIN, Budapest) wild strains MHK 6.2 ug/ml"}, {"smiles": "CC[C@H]1OC(=O)[C@H](C)[C@@H](O[C@H]2C[C@@](C)(OC)[C@@H](O)[C@H](C)O2)[C@H](C)[C@@H](O[C@@H]2O[C@H](C)C[C@H](N(C)C)[C@H]2O)[C@](C)(O)C[C@@H](C)C(=O)[C@H](C)[C@@H](O)[C@]1(C)O", "note": "[erythromycin]", "MHK": "(Abbott) wild strains MHK 60.0 ug/ml"}]}]}
